The source of these data is ChEMBL document CHEMBL5154725, “SAR evolution towards potent C-terminal carboxamide peptide inhibitors of Zika virus NS2B-NS3 protease” (Bioorg Med Chem, 2022).

SMILES strings stand for the structures. Non-standard residues stand in square brackets, D forms with d. Residues, ends and D or L forms follow the SMILES beside them. *: point of attachment. AEF = NCCOc1ccc(C[C@H](N)C(=O)O)cc1; Hydrocinnamoyl = O=C(CCc1ccccc1)*; Dab = NCC[C@H](N)C(=O)O; PhAc = O=C(Cc1ccccc1)*; NHBn = c1ccc(CN*)cc1

The nature of the test: Inhibition of 6-His tagged-G4SG4 fused ZIKV NS2B (49 to 95 residues) R95A mutant-NS3 (1 to 170 residue) R29G mutant expressed in Escherichia coli BL21 (DE3) using Bz-Nle-K-RR-AMC substrate preincubated for 10 mins followed by substrate addition and measured after 30 mins by fluorescence assay. Set-up: species or system Zika virus.
Consider `N=C(N)NCCC[C@H](NC(=O)[C@H](CCCCN)NC(=O)[C@H](CCCCN)NC(=O)Cc1ccc(-c2ccccc2)cc1)C(N)=O`, for which it took 1550 nM to reach half-maximal inhibition (IC50).

In turn, `N=C(N)NCCC[C@H](NC(=O)c1cccs1)C(=O)N[C@@H](CCCCN)C(=O)NC(C(N)=O)c1cccc(OCc2ccc(C(F)(F)F)cc2)c1` (mixture of isomers) displayed an IC50 of 6400 nM.

Regarding `NCCCC[C@H](NC(=O)Cc1ccccc1)C(=O)N[C@@H](CCCCN)C(=O)N[C@H](C(=O)NCc1ncco1)c1ccc(OCc2ccc(C(F)(F)F)cc2)cc1`, the 50% inhibitory concentration (IC50) came out at 1500 nM.

`N=C(N)NCCC[C@H](NC(=O)[C@H](Cc1ccc(OCCN)cc1)NC(=O)[C@H](CCCCN)NC(=O)Cc1ccccc1)C(N)=O` (PhAc-Lys-[AEF]-Arg-NH2) had an IC50 of over 100000 nM.

For the compound `NCCCC[C@H](NC(=O)Cc1ccccc1)C(=O)N[C@@H](CCCCN)C(=O)N[C@H](C(=O)NCC1CCCCC1)c1ccccc1`, the IC50 is 690 nM.

`N=C(N)NCCC[C@H](NC(=O)Cc1ccccc1)C(=O)N[C@@H](CCCCN)C(=O)N[C@H](C(N)=O)c1ccc(OCc2ccc(C(F)(F)F)cc2)cc1` registered an IC50 of 31800 nM.

`NCCCC[C@H](NC(=O)Cc1ccccc1)C(=O)N[C@@H](CCCCN)C(=O)N[C@H](C(=O)NCc1cc(Cl)cc(Cl)c1)c1ccccc1` had a 50% inhibitory concentration (IC50) of 320 nM.

`N=C(N)NCCC[C@H](NC(=O)c1cccs1)C(=O)N[C@@H](CCCCN)C(=O)N[C@H](C(N)=O)c1ccc(OCCc2ccccc2)cc1` had an IC50 of 9400 nM.

For the compound `NCCCC[C@H](NC(=O)Cc1ccc(Cl)c(Cl)c1)C(=O)N[C@@H](CCCCN)C(=O)N[C@H](C(=O)NCc1ccccc1)c1ccc(OCc2ccc(C(F)(F)F)cc2)cc1`, half-maximal inhibition (IC50) was put at 170 nM.

As for `N=C(N)NCCC[C@H](NC(=O)c1cccs1)C(=O)N[C@@H](CCCCN)C(=O)N[C@H](C(N)=O)c1ccc(OCc2ccccc2)cc1`, the IC50 was determined as 7600 nM.

On to `N=C(N)NCCC[C@H](NC(=O)[C@H](CCCCN)NC(=O)[C@H](CCCCN)NC(=O)Cc1ccc(Cl)c(Cl)c1)C(N)=O`, for which the midpoint of inhibition, the IC50, lay at 1230 nM.

With `NCCCC[C@H](NC(=O)Cc1ccccc1)C(=O)N[C@@H](CCCCN)C(=O)N[C@@H](C(N)=O)c1ccccc1`, the midpoint of inhibition, the IC50, lay at 15000 nM.

Take `NCCCC[C@H](NC(=O)Cc1ccccc1)C(=O)N[C@@H](CCCCN)C(=O)N[C@H](C(=O)NCc1ccc(OCc2ccc(C(F)(F)F)cc2)cc1)c1ccccc1`: half-maximal inhibition (IC50) was put at 140 nM.

On to `CN(C)Cc1ccc(CNC(=O)[C@H](CCCNC(=N)N)NC(=O)[C@H](CCCCN)NC(=O)[C@H](CCCCN)NC(=O)Cc2ccccc2)cc1`, for which the IC50 was 2800 nM.

`NCCCC[C@H](NC(=O)Cc1ccccc1)C(=O)N[C@@H](CCCCN)C(=O)N[C@H](C(=O)NCc1ccccc1)c1ccccc1` showed an IC50 of 550 nM.

In turn, `N=C(N)NCCC[C@H](NC(=O)[C@H](CCCCN)NC(=O)[C@H](CCCCN)NC(=O)Cc1ccccc1)C(=O)NCC1CCCCC1` yielded an IC50 of 1800 nM.

Compound `N=C(N)NCCC[C@H](NC(=O)[C@H](CCCCN)NC(=O)[C@H](Cc1ccccc1)NC(=O)Cc1ccccc1)C(N)=O` (PhAc-Phe-Lys-Arg-NH2) yielded an IC50 of 35000 nM.

The compound `NCCCC[C@H](NC(=O)Cc1ccncc1)C(=O)N[C@@H](CCCCN)C(=O)N[C@H](C(=O)NCc1ccccc1)c1ccc(OCc2ccc(C(F)(F)F)cc2)cc1` came in with an IC50 of 69 nM.

As for `N=C(N)NCCC[C@H](NC(=O)c1cccs1)C(=O)N[C@@H](CCCCN)C(=O)N[C@@H](C(N)=O)c1ccc(OCc2ccc(C(F)(F)F)cc2)cc1`, inhibition was half-maximal at 1600 nM (IC50).

Compound `N=C(N)NCCC[C@H](NC(=O)c1cccs1)C(=O)N[C@@H](CCCCN)C(=O)N[C@H](C(N)=O)c1ccc(O)cc1` registered an IC50 of 10200 nM.

In the case of `N=C(N)NCCC[C@H](NC(=O)[C@H](CCCCN)NC(=O)[C@H](CCCCN)NC(=O)Cc1ccncc1)C(N)=O`, the IC50 worked out at 5200 nM.

For the compound `N=C(N)NCCC[C@H](NC(=O)c1cccs1)C(=O)N[C@@H](CCCCN)C(=O)N[C@H](C(N)=O)c1ccc(OCCN2CCOCC2)cc1`, the midpoint of inhibition, the IC50, lay at 22000 nM.

`NCCCC[C@H](NC(=O)Cc1ccccc1)C(=O)N[C@@H](CCCCN)C(=O)N[C@H](C(=O)NCC1CCNCC1)c1ccc(OCc2ccc(C(F)(F)F)cc2)cc1` yielded an IC50 of 350 nM.

In the case of `N=C(N)NCCC[C@H](NC(=O)c1cccs1)C(=O)N[C@@H](CCCCN)C(=O)N[C@H](C(N)=O)c1ccc(OCc2ncco2)cc1`, the IC50 is over 100000 nM.

For `N=C(N)NCC[C@H](NC(=O)[C@H](CCCCN)NC(=O)[C@H](CCCCN)NC(=O)Cc1ccc(Cl)c(Cl)c1)C(=O)NCC1CCCCC1`, the IC50 came out at 1700 nM.

Regarding `N=C(N)NCCC[C@H](NC(=O)c1cccs1)C(=O)N[C@@H](CCCCN)C(=O)N[C@H](C(N)=O)c1ccc(OCCN2CCCCC2)cc1`, the IC50 is 3000 nM.

For `NCCCC[C@H](NC(=O)Cc1ccccc1)C(=O)N[C@@H](CCCCN)C(=O)N[C@@H](C(=O)NCc1ccccc1)c1ccccc1`, half-maximal inhibition (IC50) was put at 1900 nM.

Compound `NCCCC[C@H](NC(=O)Oc1ccccc1)C(=O)N[C@@H](CCCCN)C(=O)N[C@H](C(=O)NCc1ccccc1)c1ccc(OCc2ccc(C(F)(F)F)cc2)cc1` had an IC50 of 840 nM.

In turn, `N=C(N)NCCC[C@H](NC(=O)[C@H](CCCCN)NC(=O)[C@H](CCCCN)NC(=O)Cc1ccccc1)C(=O)O` (PhAc-Lys-Lys-Arg-OH) gave an IC50 of 41000 nM.

For the compound `N=C(N)NCCC[C@H](NC(=O)[C@H](CCCCN)NC(=O)[C@H](Cc1ccc(OCCN)cc1)NC(=O)Cc1ccccc1)C(N)=O` (PhAc-[AEF]-Lys-Arg-NH2), the midpoint of inhibition, the IC50, lay at 30700 nM.

As for `NCCCC[C@H](NC(=O)Cc1ccccc1)C(=O)N[C@@H](CCCCN)C(=O)N[C@H](C(=O)NCc1ccccc1)c1ccc(OCc2ccc(C(F)(F)F)cc2)cc1`, half-maximal inhibition (IC50) was put at 90 nM.

In the case of `CC(=O)N[C@@H](CCCCN)C(=O)N[C@@H](CCCCN)C(=O)N[C@@H](CCCNC(=N)N)C(N)=O` (Ac-Lys-Lys-Arg-NH2), the IC50 came out at 8400 nM.

`N=C(N)NCCC[C@H](NC(=O)[C@H](CCCCN)NC(=O)[C@H](CCCCN)NC(=O)Cc1ccccc1)C(=O)NCc1ccccc1` (PhAc-Lys-Lys-Arg-NHBn) came in with an IC50 of 7900 nM.

In turn, `COc1ccc([C@H](NC(=O)[C@H](CCCCN)NC(=O)[C@H](CCCNC(=N)N)NC(=O)c2cccs2)C(N)=O)cc1` yielded an IC50 of 44300 nM.

`N=C(N)NCCC[C@H](NC(=O)[C@H](CCCCN)NC(=O)[C@H](CCCCN)NC(=O)Cc1ccccc1)C(=O)NCc1cccnc1` had an IC50 of 10400 nM.

As to `N=C(N)NCCC[C@H](NC(=O)[C@H](CCCCN)NC(=O)[C@H](CCCCN)NC(=O)Cc1cccs1)C(N)=O`, the concentration for half-maximal inhibition (IC50) came to 16500 nM.

On to `N=C(N)NCCC[C@H](NC(=O)[C@H](CCCCN)NC(=O)[C@H](CCCCN)NC(=O)CCc1ccccc1)C(N)=O` (Hydrocinnamoyl-Lys-Lys-Arg-NH2), for which the IC50 amounted to 9350 nM.

For `NCCCC[C@H](NC(=O)Cc1ccccc1)C(=O)N[C@@H](CCCCN)C(=O)N[C@H](C(=O)Nc1ccccc1)c1ccc(OCc2ccc(C(F)(F)F)cc2)cc1`, the IC50 was determined as 3400 nM.

Consider `CNC(=O)[C@@H](NC(=O)[C@H](CCCCN)NC(=O)[C@H](CCCCN)NC(=O)Cc1ccccc1)c1ccc(OCc2ccc(C(F)(F)F)cc2)cc1`, for which the IC50 was 2800 nM.

`N=C(N)NCCC[C@H](NC(=O)[C@H](CCN)NC(=O)[C@H](CCCCN)NC(=O)Cc1ccccc1)C(N)=O` (PhAc-Lys-[Dab]-Arg-NH2) registered an IC50 of 450 nM.

`NCCCC[C@H](NC(=O)[C@H](CCCCN)NS(=O)(=O)Cc1ccccc1)C(=O)N[C@H](C(=O)NCc1ccccc1)c1ccc(OCc2ccc(C(F)(F)F)cc2)cc1`: 1800 nM corresponded to half-maximal inhibition (IC50).
